Data taken from patent publication US11208412B2 (DAEGU-GYEONGBUK MEDICAL INNOVATION FOUNDATION, priority 2017, dated 2021).
Where two headings read alike, the source gives them in different places.

Assays:
Assay in all cases: Kinase selectivity, DiscoverX scanMAX Kinase assay panel (% control)
Format in all cases: binding
[1] = biological target: T1, kinases of the scanMAX Kinase assay panel (Homo sapiens, UniProt P51812); conditions: 1 uM in DMSO
T1 construct: purchased DiscoverX Co. (contract measurement) scanMAX Kinase assay panel
T1 sequence (P51812 whole entry): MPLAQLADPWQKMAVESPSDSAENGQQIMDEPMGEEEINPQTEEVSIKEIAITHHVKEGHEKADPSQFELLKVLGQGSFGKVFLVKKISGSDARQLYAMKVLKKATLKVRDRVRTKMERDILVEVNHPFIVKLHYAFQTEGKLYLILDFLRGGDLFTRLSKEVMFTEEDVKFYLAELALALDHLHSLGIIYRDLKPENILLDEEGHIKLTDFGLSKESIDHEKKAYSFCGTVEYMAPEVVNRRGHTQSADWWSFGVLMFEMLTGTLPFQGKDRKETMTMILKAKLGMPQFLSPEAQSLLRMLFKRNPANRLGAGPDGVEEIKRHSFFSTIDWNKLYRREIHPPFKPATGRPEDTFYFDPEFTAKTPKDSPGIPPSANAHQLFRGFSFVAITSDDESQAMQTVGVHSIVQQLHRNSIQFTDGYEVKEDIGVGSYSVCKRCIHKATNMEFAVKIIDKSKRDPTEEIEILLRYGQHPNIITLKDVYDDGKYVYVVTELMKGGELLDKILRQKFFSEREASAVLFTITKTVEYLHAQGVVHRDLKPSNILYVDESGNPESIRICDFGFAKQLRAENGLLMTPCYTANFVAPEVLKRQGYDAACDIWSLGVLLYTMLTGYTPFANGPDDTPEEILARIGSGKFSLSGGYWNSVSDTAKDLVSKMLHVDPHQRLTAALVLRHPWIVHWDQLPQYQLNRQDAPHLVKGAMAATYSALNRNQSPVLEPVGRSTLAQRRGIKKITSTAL
Method: (§1) The following experiment was performed to evaluate the activity of the compounds of the present invention to inhibit many enzymes.
(§2) Particularly, the compounds of Examples 8, 64 and 104 were selected among all of those compounds of the invention. DiscoverX Co. was asked to measure the enzyme (kinase) selectivity, and the experiment was performed using scanMAX™ Kinase assay panel.
(§3) Wherein, the concentration of the drug treated to each enzyme was 1 uM in DMSO and the control percentage (% control) was determined by the following Equation 1. (example compound−positive control)/(negative control−positive control)×100 [Equation 1]
(§4) Herein, the positive control indicates the compound showing the % control of 0%, and the negative control indicates DMSO showing the % control of 100%. The enzyme selectivity in the present invention is defined as follows: When the % control for each enzyme is less than 35% (<35%), it is judged that the compound has the activity to the corresponding enzyme.

[2] = biological target: T2, kinases of the scanMAX Kinase assay panel (Homo sapiens, UniProt Q96NX5); conditions: CAMK1G; 1 uM
T2 construct: purchased DiscoverX Co. (contract measurement) scanMAX Kinase assay panel
T2 sequence (Q96NX5 whole entry): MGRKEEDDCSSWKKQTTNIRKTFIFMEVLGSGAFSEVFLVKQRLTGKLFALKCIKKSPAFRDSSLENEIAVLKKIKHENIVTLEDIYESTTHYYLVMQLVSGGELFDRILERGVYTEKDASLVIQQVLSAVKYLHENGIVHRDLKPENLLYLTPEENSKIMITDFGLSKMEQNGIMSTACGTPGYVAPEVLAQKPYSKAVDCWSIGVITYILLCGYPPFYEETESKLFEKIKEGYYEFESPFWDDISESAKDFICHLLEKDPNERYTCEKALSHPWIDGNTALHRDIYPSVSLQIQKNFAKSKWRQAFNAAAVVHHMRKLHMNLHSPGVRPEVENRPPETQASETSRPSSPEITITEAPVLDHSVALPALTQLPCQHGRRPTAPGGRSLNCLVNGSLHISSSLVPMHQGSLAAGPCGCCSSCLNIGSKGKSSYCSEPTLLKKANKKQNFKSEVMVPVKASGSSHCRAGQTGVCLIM
Method: as §1, §2, §3, §4

[3] = biological target: T3, kinases of the scanMAX Kinase assay panel (Homo sapiens, UniProt Q16566); conditions: CAMK4; 1 uM
T3 construct: purchased DiscoverX Co. (contract measurement) scanMAX Kinase assay panel
T3 sequence (Q16566 1-473): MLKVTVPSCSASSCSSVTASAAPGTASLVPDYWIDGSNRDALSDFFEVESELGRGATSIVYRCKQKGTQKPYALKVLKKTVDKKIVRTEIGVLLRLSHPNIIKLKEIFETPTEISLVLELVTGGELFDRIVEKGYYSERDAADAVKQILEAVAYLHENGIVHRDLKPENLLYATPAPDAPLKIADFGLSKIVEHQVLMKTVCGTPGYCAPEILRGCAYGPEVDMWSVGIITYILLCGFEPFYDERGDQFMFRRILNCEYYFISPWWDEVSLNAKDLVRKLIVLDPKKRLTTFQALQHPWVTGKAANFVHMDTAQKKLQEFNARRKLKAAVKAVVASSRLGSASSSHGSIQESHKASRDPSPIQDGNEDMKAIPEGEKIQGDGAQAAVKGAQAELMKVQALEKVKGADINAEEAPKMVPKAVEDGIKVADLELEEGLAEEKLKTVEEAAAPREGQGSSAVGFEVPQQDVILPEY
Method: as §1, §2, §3, §4

[4] = biological target: T4, kinases of the scanMAX Kinase assay panel (Homo sapiens, UniProt P0C1S8); conditions: kinase WEE2; 1 uM in DMSO
T4 construct: purchased DiscoverX Co. (contract measurement) scanMAX Kinase assay panel
T4 sequence (P0C1S8 whole entry): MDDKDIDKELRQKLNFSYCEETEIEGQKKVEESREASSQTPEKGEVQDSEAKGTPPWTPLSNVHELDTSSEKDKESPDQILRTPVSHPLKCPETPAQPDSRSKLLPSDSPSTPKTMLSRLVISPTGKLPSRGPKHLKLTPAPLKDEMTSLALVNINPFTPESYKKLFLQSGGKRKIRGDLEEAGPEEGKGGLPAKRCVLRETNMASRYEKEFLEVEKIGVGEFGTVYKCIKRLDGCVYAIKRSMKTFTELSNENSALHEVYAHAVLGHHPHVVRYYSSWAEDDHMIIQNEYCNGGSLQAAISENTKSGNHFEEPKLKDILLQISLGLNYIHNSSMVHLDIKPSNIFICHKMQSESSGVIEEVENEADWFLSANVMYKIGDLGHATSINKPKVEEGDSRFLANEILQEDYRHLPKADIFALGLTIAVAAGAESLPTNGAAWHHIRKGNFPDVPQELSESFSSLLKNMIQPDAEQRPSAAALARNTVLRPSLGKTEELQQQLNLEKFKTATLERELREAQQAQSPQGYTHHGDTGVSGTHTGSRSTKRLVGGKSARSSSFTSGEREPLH
Method: as §1, §2, §3, §4

[5] = biological target: T5, kinases of the scanMAX Kinase assay panel (Homo sapiens, UniProt P21860); conditions: ERBB3; 1 uM
T5 construct: purchased DiscoverX Co. (contract measurement) scanMAX Kinase assay panel
Method: as §1, §2, §3, §4

[6] = biological target: T6, kinases of the scanMAX Kinase assay panel (Homo sapiens, UniProt Q8WTQ7); conditions: GRK7; 1 uM
T6 construct: purchased DiscoverX Co. (contract measurement) scanMAX Kinase assay panel
T6 sequence (Q8WTQ7 1-553): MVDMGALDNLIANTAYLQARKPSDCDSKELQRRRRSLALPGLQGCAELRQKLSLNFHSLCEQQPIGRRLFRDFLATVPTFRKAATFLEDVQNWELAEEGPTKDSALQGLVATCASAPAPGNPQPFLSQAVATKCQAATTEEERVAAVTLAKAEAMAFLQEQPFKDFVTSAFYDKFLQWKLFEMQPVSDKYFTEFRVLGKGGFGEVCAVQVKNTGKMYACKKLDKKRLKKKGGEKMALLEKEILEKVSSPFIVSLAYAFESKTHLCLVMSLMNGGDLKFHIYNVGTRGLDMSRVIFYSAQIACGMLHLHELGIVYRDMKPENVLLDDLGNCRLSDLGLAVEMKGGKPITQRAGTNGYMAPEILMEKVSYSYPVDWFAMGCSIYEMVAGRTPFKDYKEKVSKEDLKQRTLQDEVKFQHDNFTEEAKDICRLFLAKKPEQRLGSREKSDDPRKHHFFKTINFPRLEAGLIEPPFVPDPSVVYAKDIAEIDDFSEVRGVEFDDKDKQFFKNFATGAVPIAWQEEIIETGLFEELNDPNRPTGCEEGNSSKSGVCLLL
Method: as §1, §2, §3, §4

[7] = biological target: T7, kinases of the scanMAX Kinase assay panel (Homo sapiens, UniProt Q15418); conditions: 1 uM in DMSO
T7 construct: purchased DiscoverX Co. (contract measurement) scanMAX Kinase assay panel
T7 sequence (Q15418 whole entry): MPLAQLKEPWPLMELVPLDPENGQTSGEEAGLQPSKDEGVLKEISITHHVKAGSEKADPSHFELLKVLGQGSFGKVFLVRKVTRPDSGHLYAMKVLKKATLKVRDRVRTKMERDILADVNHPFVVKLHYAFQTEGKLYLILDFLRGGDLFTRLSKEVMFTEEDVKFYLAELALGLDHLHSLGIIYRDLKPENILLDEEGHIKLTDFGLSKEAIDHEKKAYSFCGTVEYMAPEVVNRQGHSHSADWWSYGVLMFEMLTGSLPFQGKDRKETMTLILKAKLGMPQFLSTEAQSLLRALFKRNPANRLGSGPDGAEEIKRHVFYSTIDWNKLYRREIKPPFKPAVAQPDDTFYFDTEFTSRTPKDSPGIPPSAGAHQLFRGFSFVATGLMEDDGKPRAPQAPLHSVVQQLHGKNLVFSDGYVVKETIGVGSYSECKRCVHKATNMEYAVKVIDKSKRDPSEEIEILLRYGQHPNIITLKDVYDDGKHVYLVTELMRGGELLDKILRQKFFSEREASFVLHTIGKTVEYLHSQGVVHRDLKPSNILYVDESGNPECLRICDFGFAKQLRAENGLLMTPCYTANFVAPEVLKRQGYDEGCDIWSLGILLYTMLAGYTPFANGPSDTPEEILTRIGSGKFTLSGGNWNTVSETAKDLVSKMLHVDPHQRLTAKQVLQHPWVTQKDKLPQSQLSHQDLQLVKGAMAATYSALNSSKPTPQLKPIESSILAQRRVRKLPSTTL
Method: as §1, §2, §3, §4

[8] = biological target: T8, kinases of the scanMAX Kinase assay panel (Homo sapiens, UniProt P10721, D816V); conditions: KIT(D816V); 1 uM
T8 construct: purchased DiscoverX Co. (contract measurement) scanMAX Kinase assay panel
T8 sequence (P10721 26-976 D816V): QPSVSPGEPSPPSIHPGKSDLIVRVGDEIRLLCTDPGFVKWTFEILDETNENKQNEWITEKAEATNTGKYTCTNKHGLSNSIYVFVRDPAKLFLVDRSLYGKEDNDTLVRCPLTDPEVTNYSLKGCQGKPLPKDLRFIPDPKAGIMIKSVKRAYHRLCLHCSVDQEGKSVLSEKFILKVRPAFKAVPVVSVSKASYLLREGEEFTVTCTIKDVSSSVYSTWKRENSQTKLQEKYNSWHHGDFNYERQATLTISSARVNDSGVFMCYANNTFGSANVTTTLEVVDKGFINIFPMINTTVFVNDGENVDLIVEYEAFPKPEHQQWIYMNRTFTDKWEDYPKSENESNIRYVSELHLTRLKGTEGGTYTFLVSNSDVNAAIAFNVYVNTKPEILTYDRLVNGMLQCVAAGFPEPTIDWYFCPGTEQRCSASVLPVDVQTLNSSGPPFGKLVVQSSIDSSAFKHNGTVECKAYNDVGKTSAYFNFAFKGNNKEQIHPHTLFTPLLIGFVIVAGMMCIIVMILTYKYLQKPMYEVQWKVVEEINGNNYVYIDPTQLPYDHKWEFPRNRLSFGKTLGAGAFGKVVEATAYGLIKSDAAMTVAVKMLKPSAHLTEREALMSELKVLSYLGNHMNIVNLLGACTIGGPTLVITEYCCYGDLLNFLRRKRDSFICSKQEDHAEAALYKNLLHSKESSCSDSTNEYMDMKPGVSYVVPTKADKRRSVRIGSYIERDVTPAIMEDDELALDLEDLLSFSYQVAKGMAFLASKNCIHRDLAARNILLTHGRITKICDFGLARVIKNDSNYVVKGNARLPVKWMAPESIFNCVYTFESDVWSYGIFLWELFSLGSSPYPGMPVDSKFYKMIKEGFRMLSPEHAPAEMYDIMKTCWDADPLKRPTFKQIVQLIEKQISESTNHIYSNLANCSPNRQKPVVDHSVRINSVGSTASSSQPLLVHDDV
Method: as §1, §2, §3, §4

[9] = biological target: T9, kinases of the scanMAX Kinase assay panel (Homo sapiens, UniProt Q32MK0); conditions: MLCK; 1 uM
T9 construct: purchased DiscoverX Co. (contract measurement) scanMAX Kinase assay panel
T9 sequence (Q32MK0 1-819): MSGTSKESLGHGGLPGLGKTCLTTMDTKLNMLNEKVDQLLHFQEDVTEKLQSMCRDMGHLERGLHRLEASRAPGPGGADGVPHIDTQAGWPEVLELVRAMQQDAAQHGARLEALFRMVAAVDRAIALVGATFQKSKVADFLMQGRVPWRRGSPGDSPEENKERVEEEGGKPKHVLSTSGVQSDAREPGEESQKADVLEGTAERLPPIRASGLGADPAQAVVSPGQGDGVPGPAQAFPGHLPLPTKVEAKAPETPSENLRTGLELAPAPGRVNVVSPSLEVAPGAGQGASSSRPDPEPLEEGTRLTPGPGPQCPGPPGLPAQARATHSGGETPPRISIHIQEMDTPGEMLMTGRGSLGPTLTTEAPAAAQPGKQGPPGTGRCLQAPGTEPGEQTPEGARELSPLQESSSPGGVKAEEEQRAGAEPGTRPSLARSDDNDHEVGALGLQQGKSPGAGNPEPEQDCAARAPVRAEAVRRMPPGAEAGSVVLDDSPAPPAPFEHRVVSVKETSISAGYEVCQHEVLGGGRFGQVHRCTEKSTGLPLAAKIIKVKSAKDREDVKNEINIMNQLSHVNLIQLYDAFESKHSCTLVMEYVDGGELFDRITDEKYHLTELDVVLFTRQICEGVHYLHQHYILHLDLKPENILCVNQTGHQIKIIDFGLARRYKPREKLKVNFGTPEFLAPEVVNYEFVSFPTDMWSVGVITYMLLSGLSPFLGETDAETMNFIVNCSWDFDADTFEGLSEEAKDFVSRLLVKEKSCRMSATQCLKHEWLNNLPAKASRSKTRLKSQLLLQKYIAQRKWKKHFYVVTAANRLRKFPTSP
Method: as §1, §2, §3, §4

[10] = biological target: T10, kinases of the scanMAX Kinase assay panel (Homo sapiens, UniProt Q8N5S9); conditions: CAMKK1; 1 uM
T10 construct: purchased DiscoverX Co. (contract measurement) scanMAX Kinase assay panel
T10 sequence (Q8N5S9 whole entry): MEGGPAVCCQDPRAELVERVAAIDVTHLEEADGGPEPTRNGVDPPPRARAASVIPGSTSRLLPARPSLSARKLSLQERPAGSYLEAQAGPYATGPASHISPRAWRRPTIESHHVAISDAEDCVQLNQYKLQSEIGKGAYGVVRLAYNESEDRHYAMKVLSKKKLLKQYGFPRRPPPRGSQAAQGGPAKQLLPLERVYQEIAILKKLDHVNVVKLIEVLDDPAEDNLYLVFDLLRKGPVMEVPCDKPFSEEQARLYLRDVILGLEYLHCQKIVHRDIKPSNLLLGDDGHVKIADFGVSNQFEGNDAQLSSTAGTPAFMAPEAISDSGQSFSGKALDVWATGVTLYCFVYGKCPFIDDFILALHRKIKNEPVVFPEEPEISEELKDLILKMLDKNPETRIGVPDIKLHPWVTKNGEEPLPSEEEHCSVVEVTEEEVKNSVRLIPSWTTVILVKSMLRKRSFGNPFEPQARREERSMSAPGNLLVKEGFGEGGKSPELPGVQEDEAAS
Method: as §1, §2, §3, §4

[11] = kinase RSK2(Kin.Dom.1-N-terminal), read-out: % control, RSK2(Kin.Dom.1-N-terminal)
[12] = kinase RSK2(Kin.Dom.2-C-terminal), read-out: % control, RSK2(Kin.Dom.2-C-terminal)
[13] = kinase RSK1(Kin.Dom.1-N-terminal), read-out: % control, RSK1(Kin.Dom.1-N-terminal)
[14] = kinase RSK1(Kin.Dom.2-C-terminal), read-out: % control, RSK1(Kin.Dom.2-C-terminal)

SMILES: CC1(Nc2nc(Nc3cnn([C@H]4CCN(C5COC5)C[C@@H]4F)c3Cl)nc3[nH]cc(C#N)c23)CC1 [Example 52, 2-((5-chloro-1-((3S,4S)-3-fluoro-1-(oxetane-3-yl)piperidine-4-yl)-1H-pyrazole-4-yl)amino)((1-methylcyclopropyl)amino)-7H-pyrrolo[2,3-d]pyrimidine-5-carbonitrile]
- remaining binding at 1 µM [1, 11]: 0.55%
- remaining binding at 1 µM [1, 12]: 100%
- remaining binding at 1 µM [2]: 34%
- remaining binding at 1 µM [3]: 55%
- remaining binding at 1 µM [4]: 100%
- remaining binding at 1 µM [5]: 100%
- remaining binding at 1 µM [6]: 65%
- remaining binding at 1 µM [7, 13]: 2.4%
- remaining binding at 1 µM [7, 14]: 52%
- remaining binding at 1 µM [8]: 0.15%
- remaining binding at 1 µM [9]: 9%
- remaining binding at 1 µM [10]: 21%

SMILES: CNc1nc(Nc2ccc(C(=O)N3CCOCC3)cc2OC)nc2[nH]cc(C#N)c12 [Example 1, 2-((2-methoxy-4-(morpholine-4-carbonyl)phenyl)amino)-4-(methylamino)-7H-pyrrolo[2,3-d]pyrimidine-5-carbonitrile]
- remaining binding at 1 µM [1, 11]: 68%
- remaining binding at 1 µM [1, 12]: 66%
- remaining binding at 1 µM [2]: 74%
- remaining binding at 1 µM [3]: 99%
- remaining binding at 1 µM [4]: 100%
- remaining binding at 1 µM [5]: 68%
- remaining binding at 1 µM [6]: 71%
- remaining binding at 1 µM [7, 13]: 98%
- remaining binding at 1 µM [7, 14]: 59%
- remaining binding at 1 µM [8]: 89%
- remaining binding at 1 µM [9]: 96%
- remaining binding at 1 µM [10]: 81%

SMILES: CCNc1nc(Nc2ccc(C(=O)N3CCC(N4CCOCC4)CC3)cc2OC)nc2[nH]cc(C(F)(F)F)c12 [Example 104, (4-((4-(ethylamino)-5-(trifluoromethyl)-7H-pyrrolo[2,3-d]pyrimidine-2-yl)amino)-3-methoxyphenyl)(4-morpholinopiperidine-1-yl)methanone]
- remaining binding at 1 µM [1, 11]: 100%
- remaining binding at 1 µM [1, 12]: 71%
- remaining binding at 1 µM [2]: 94%
- remaining binding at 1 µM [3]: 27%
- remaining binding at 1 µM [4]: 100%
- remaining binding at 1 µM [5]: 100%
- remaining binding at 1 µM [6]: 78%
- remaining binding at 1 µM [7, 13]: 89%
- remaining binding at 1 µM [7, 14]: 61%
- remaining binding at 1 µM [8]: 99%
- remaining binding at 1 µM [9]: 92%
- remaining binding at 1 µM [10]: 14%
